Data reported in patent US8815535B2, “Disk diffusion assay for oritavancin” (The Medicines Company, priority 2011, dated 2014).
Read-outs that look alike come from different tables or passages of the source.

Tests used:
S. aureus isolates = assay: Disk diffusion assay, panel of isolates; format: cell-based, Staphylococcus aureus
Description: (§1) The study was designed to identify conditions that improve oritavancin diffusion in agar and consequently yield a zone diameter ≧15 mm for the CLSI quality control strain MSSA ATCC 25923. Excipients that increased the disk diffusion of oritavancin in agar relative to disks containing only oritavancin were identified and selected for further study. […] A prediffusion step at room temperature was introduced to maximize oritavancin diffusion prior to initiation of bacterial growth. In this step, the antimicrobial disks were placed on agar plates seeded with a bacterial isolate and incubated at room temperature for 3 hours. Plates were then incubated overnight at 37° C. Zone diameters around the disks in which bacterial growth was inhibited were measured with a ruler and reported in millimeters.
(§2) Ethanol-sterilized Whatman paper disks (6 mm diameter) were allowed to dry then impregnated with 20 microliters of oritavancin solution containing total amounts ranging from 90 to 360 micrograms. Disks were allowed to dry at room temperature for various times prior to use.
(§3) Bacterial suspensions were prepared and adjusted to an optical density of 0.1 at 600 nm. Standard cation-adjusted Mueller Hinton agar plates (90 mm diameter) were seeded with bacterial suspensions by initially swabbing the center of plate then moving outward towards the edge. The plate was swabbed a second time, perpendicular to the orientation of the first swab. To assess the impact of prediffusion on diameter of inhibition zones, two disks were immediately placed on one half of the plate and the plate was incubated for 3 hours at room temperature. After 3 hours, two additional disks were placed on the other half of the plate then the plate was incubated overnight at 37° C. Zone diameters were measured with a ruler and reported in millimeters.
(§4) Oritavancin powder was dissolved in freshly-prepared solutions of the indicated excipients at concentrations of 0.625, 1.25, 2.5, 5, and 10 mg/ml (adjusted for potency based on lot 875561L00 purity of 83.1%) by vortexing for a minimum of 5 minutes. Oritavancin solutions in the various excipients, while not visually clear, were free from any apparent particulates as assessed visually. Sterile Oxoid blank disks were impregnated with 20 μl of these oritavancin solutions, resulting in oritavancin disk loads ranging from 12.5 to 200 μg. Unless indicated otherwise, disks were allowed to dry overnight at room temperature prior to use.
(§5) Bacterial suspensions from isolated colonies on overnight cation-adjusted Mueller Hinton agar plates were prepared in sterile saline and adjusted to an optical density of 0.1 at 600 nm Standard cation-adjusted Mueller Hinton agar plates (90 mm diameter) were seeded with bacterial suspensions by initially swabbing the center of plate then moving outward. Swabbing was continued at a right angle and then at an oblique angle to the first and second swabs. Disks were placed upon the seeded plates with sterile forceps. Plates were then incubated overnight at 37° C. and inhibition zone diameters were measured with a ruler and reported in millimeters.

hVISA NRS2 = assay: Disk diffusion assay (zone of inhibition); format: cell-based; conditions: Staphylococcus aureus, Oxoid disks, 20 μl of 18 mg/ml oritavancin in 5% P80, stored 30 days at room temperature, prediffusion 6 hours at 4° C., read-out: Inhibition zone diameter
MSSA ATCC 29213 = assay: Disk diffusion assay (zone of inhibition); format: cell-based; conditions: Staphylococcus aureus; for zone of inhibition at 360 µg/disc: 360 μg in 5% P80, read-out: Zone diameter (mm ± SD); for zone of inhibition at 180 µg/disc: MSSA ATCC 29213, 180 μg oritavancin in 2.5% P80, read-out: Zone diameter
Description: as §1, §2, §3, §4, §5

CN[C@H](CC(C)C)C(=O)N[C@H]1C(=O)N[C@@H](CC(N)=O)C(=O)N[C@H]2C(=O)N[C@H]3C(=O)N[C@H](C(=O)N[C@H](C(=O)O)c4cc(O)cc(O)c4-c4cc3ccc4O)[C@H](O[C@H]3C[C@](C)(N)[C@@H](O)[C@H](C)O3)c3ccc(c(Cl)c3)Oc3cc2cc(c3O[C@@H]2O[C@H](CO)[C@@H](O)[C@H](O)[C@H]2O[C@H]2C[C@](C)(NCc3ccc(-c4ccc(Cl)cc4)cc3)[C@@H](O)[C@H](C)O2)Oc2ccc(cc2Cl)[C@H]1O [oritavancin, N-(4-(4-chlorophenyl)benzyl)A82846B]
Zone diameter smaller for the two reduced-susceptibility isolates compared to MSSA and MRSA isolates exhibiting the same BMD MICs (S. aureus isolates; 360 μg in 5% P80): approximately 2 mm | Average increase of zone diameter by prediffusion (S. aureus isolates; MSSA and MRSA strains, 360 μg in 5% P80): approximately 2.5 mm | zone of inhibition at 1250 µg/mL (S. aureus isolates; Staphylococcus aureus, 19 wild-type clinical isolates, 20 μl of 1.25 mg/ml in 4% P80/Span 80 (1:1), calcium alginate swabs, read-out: Inhibition zone diameters): 20 to 24 mm | Average increase of zone diameter by prediffusion (S. aureus isolates; VISA and oritavancin reduced-susceptibility isolates, 360 μg in 5% P80): approximately 1.1 mm | Zone diameters (S. aureus isolates; many S. aureus strains, different combinations of the alterations to the traditional assay): > 15 mm | zone of inhibition at 18000 µg/mL (hVISA NRS2): 16.5 mm | zone of inhibition at 360 µg/disc (MSSA ATCC 29213; 336 h, ATCC 29213, Experiment 1, disks stored 14 days, no prediffusion): 15.8 ± 0.4 mm | zone of inhibition at 25 µg/disc (MSSA ATCC 29213; ATCC 29213, 25 μg (1.25 mg/ml) in 4% P80/Span 80 (1:1), dried overnight, read-out: Inhibition zone diameter): 24 mm | zone of inhibition at 360 µg/disc (MSSA ATCC 29213; ATCC 29213, Average, no prediffusion): 15.8 ± 0.4 mm | zone of inhibition at 360 µg/disc (MSSA ATCC 29213; ATCC 29213, Average, prediffusion): 18.3 ± 0.4 mm | zone of inhibition at 360 µg/disc (MSSA ATCC 29213; ATCC 29213, Experiment 1, disks stored 14 days, 3 h prediffusion at room temperature): 18.3 ± 0.4 mm | zone of inhibition at 180 µg/disc (MSSA ATCC 29213; 0% P80 in CAMHA, no prediffusion): 15.3 mm | zone of inhibition at 180 µg/disc (MSSA ATCC 29213; 0% P80 in CAMHA, prediffusion): 18.3 mm | zone of inhibition at 180 µg/disc (MSSA ATCC 29213; 1% P80 in CAMHA, no prediffusion): 15.3 mm | zone of inhibition at 180 µg/disc (MSSA ATCC 29213; 1% P80 in CAMHA, prediffusion): 18 mm
